System: hESC-derived OPCs
Assay: Stage VI terminal differentiation of hESC-derived OPCs
Assay type: cell-based, human
Method: Stage VI; for terminal differentiation, these cells were plated onto poly-L-ornithine (10 μg/mL, Sigma-Aldrich) and mouse laminin (10 μg/mL, Life technologies) coated plates in N2/B27 medium supplemented with T3 (50 ng/mL, Sigma-Aldrich) for 21 days to induce pre-OLs.

N[C@@H](Cc1cc(I)c(Oc2ccc(O)c(I)c2)c(I)c1)C(=O)O [T3, Triiodothyronine]
terminal differentiation of OPCs into O4+ pre-OLs and MBP+ pre-myelinating OLs: promoted terminal differentiation

Reference: patent publication US10640748B2, “Oligodendroglial cell culturing methods and in methods for treating neurodegenerative disorders by using thyroid hormones or analogues” (NeuOrphan Pty Ltd, priority 2014, dated 2020)
